From US7999069B2, “EphB receptor-binding peptides” (Sanford-Burnham Medical Research Institute, priority 2005, dated 2011)
“And” between values parts separate entries of the source, which are not always exact repeats. Identical values can stand only once. Like-named read-outs stand apart in the source and are kept apart here. No end group written: not given here.

Legend:
EphB4 [1] = biological target: T1, EphB4 (Homo sapiens, UniProt P54760); assay: Inhibition of ephrin-B2 AP binding to immobilized EphB4 ectodomain
T1 construct: panned on the ectodomains of EphB1, EphB2, or EphB4 fused to human Fc
T1 sequence (P54760 16-539 limits assumed): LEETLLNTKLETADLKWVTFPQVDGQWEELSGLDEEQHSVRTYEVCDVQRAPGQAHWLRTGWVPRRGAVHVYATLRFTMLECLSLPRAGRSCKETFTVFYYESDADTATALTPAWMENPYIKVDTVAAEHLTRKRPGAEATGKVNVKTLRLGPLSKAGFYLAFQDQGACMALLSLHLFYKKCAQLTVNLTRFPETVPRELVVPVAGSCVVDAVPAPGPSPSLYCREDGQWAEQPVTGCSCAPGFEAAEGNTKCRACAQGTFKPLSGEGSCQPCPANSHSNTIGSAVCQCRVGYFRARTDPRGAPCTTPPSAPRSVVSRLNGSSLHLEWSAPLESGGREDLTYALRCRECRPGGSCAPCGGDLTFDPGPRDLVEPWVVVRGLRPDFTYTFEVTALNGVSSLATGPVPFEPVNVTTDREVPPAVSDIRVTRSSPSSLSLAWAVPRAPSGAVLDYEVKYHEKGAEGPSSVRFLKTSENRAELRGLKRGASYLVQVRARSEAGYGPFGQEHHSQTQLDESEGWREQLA
Protocol: Peptides that bind to the same receptor region as the ephrins would be expected to inhibit Eph receptor-ephrin association, if they interact with sufficient affinity. A number of synthetic peptides were tested for their ability to inhibit binding of alkaline phosphatase-tagged ephrin-B2 (ephrin-B2-AP) to EphB receptors (FIG. 3). Most of the peptides were synthesized with a biotin tag and immobilized on streptavidin plates to verify their ability to capture the EphB ectodomains used for their isolation.
Ephrin-B2 AP binding to the indicated immobilized EphB receptor ectodomains was measured in the presence of the indicated peptides and detected by measuring alkaline phosphatase activity. […]. […] Wells coated with the different EphB ectodomains were incubated with ephrin-B2 AP and 50 μM of the indicated peptides. Ephrin-B2 AP binding in the presence of peptide was normalized to binding in the absence of peptide. All peptides were biotinylated except for FSPQ and EWYM. […] Therefore, IPWT was not used for further experiments. The EWYM, TWO, and FSPQ peptides were not synthesized with a biotin tag and therefore were tested directly for inhibition of ephrin-B2 binding. The EWLS, SNEW, and TNYL peptides were selective because they antagonized ephrin binding to only one EphB receptor (FIGS. 3B, D, and F).
The GP motif aligns with the GP motif of TNYL and the RAW motif aligns precisely next to the last amino acid of TNYL. […] For competition assays between peptides and ephrin-B2 alkaline phosphatase fusion protein (ephrin-B2 AP), the concentration of ephrin-B2 AP used was adjusted to obtain similar signals with different EphB receptors (0.135-1.45 OD min^−1ml^−1). Ephrin-B2 AP was co-incubated for 1 hr with different peptide concentrations in Ni-NTA wells coated with 1 μg/ml Eph receptor Fc. After several washes, the amount of ephrin-B2-AP bound was quantified using p-nitrophenylphosphate as a substrate. Alkaline phosphatase activity from wells without EphB Fc was subtracted as background. […] […]. In these experiments, the two peptides are not biotinylated. […] Ephrin-B2-AP binding in the presence of peptide was normalized to binding in the absence of peptide in (A) and (B). […] Endogenous EphB4 was immunoprecipitated from MCF7 breast cancer cells after stimulation with ephrin-B2 Fc, or Fc as a control, and probed by immunoblotting with anti-phosphotyrosine antibodies (PTyr). […] The filters were reprobed with EphB4 antibodies to confirm equal amounts of immunoprecipitated receptor.

EphB receptors = assay: Ephrin-B2 AP binding to different EphB ectodomains in presence of peptide (selectivity); details: 10 μM peptide
Protocol: Ephrin-B2 AP binding to the indicated immobilized EphB receptor ectodomains was measured in the presence of the indicated peptides and detected by measuring alkaline phosphatase activity. […] Wells coated with the different EphB ectodomains were incubated with ephrin-B2 AP and 50 μM of the indicated peptides. Ephrin-B2 AP binding in the presence of peptide was normalized to binding in the absence of peptide. All peptides were biotinylated except for FSPQ and EWYM. […] The EWYM, TWO, and FSPQ peptides were not synthesized with a biotin tag and therefore were tested directly for inhibition of ephrin-B2 binding.
Ephrin-B2 AP was co-incubated for 1 hr with different peptide concentrations in Ni-NTA wells coated with 1 μg/ml Eph receptor Fc. After several washes, the amount of ephrin-B2-AP bound was quantified using p-nitrophenylphosphate as a substrate. Alkaline phosphatase activity from wells without EphB Fc was subtracted as background. […] In these experiments, the two peptides are not biotinylated. […] Ephrin-B2-AP binding in the presence of peptide was normalized to binding in the absence of peptide in (A) and (B).

EphB4 [2] = biological target: T2, EphB4 (Homo sapiens, UniProt P54760); assay: Ephrin-B2 Fc-induced EphB4 tyrosine phosphorylation in breast cancer cells; assay type: cell-based; details: MCF7 cells
T2 construct: MCF-7 human breast cancer cells, which endogenously express EphB4; endogenous in cells; host or cells: MCF7
T2 sequence (P54760 16-987): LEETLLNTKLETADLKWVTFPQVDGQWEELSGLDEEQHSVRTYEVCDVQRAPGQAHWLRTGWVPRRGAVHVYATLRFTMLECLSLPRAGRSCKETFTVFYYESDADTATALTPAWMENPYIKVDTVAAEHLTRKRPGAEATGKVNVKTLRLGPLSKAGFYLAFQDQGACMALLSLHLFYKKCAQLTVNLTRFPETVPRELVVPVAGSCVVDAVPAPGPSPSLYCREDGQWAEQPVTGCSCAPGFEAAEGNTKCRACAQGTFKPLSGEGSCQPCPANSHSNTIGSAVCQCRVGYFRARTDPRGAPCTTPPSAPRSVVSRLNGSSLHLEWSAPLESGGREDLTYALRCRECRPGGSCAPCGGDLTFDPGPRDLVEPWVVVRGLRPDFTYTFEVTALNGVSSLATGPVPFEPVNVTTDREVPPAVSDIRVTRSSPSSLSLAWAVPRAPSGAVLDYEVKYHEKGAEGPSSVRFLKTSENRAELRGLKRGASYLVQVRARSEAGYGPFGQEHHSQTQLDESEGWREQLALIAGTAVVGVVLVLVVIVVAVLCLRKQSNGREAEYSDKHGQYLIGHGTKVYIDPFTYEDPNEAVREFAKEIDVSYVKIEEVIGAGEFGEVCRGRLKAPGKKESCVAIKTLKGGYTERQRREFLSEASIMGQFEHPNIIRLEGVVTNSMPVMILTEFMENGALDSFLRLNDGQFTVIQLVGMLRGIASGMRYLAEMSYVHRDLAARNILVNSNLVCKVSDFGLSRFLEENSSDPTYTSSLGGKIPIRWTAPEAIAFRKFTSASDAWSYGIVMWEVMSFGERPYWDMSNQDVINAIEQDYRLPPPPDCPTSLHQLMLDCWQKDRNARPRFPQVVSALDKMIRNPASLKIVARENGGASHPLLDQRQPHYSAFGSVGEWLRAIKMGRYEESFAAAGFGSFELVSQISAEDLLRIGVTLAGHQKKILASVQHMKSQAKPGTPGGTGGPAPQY
Protocol: Preincubation of COS cells with the SNEW peptide in a concentration-dependent manner blocked the ability of ephrin-B1 Fc to induce tyrosine phosphorylation, and therefore activation, of endogenous EphB2 (FIG. 4A). EphB2 was immunoprecipitated from COS cells after stimulation with ephrin-B1 Fc, or Fc as a control, in the presence of the indicated concentrations of SNEW peptide and control RTVA peptide. For EphB2 immunoprecipitations, COS cells were serum-starved in DME high glucose for 3 hrs prior to stimulation with 1 μg/ml ephrin-B1 Fc or Fc protein in the presence or absence of EphB2-binding peptides or a control peptide. […] After ephrin stimulation, the cells were lysed in modified RIPA buffer (150 mM NaCl, 1 mM EDTA, 1% Triton X-100, 1% Na deoxycholate, 0.1% SDS, 20 mM Tris pH 8.0) with protease inhibitors and 1 mM sodium orthovanadate. Cell lysates were used for immunoprecipitation with either 5 μg EphB2 antibodies or 10 μg EphB4 antibodies. […]
The GP motif aligns with the GP motif of TNYL and the RAW motif aligns precisely next to the last amino acid of TNYL. […] After several washes, the amount of ephrin-B2-AP bound was quantified using p-nitrophenylphosphate as a substrate. […]

EphB4 [3] = biological target: T2, EphB4; assay: Peptide pull-down of EphB4 from MCF7 or transfected 293T cells; assay type: binding
Protocol: The ability of the peptides to bind in a stable manner, which is important for both targeting and competitive inhibition, was tested in pull-down experiments. For peptide pull-down experiments, cells in 60 cm plates at 70% confluency or adult mouse brain tissue were solubilized in pull-down buffer (50 mM HEPES pH 7.5, 150 mM NaCl, 10% glycerol, 1% Triton-X100, 5 mM KCl and 1 mM EDTA). Three μg of biotinylated peptide were incubated for 45-90 min with 5 μl streptavidin agarose beads (Sigma), unbound peptide was washed away, and the beads were incubated with the cell lysates for 45-90 min. Proteins bound to the beads were separated by SDS-polyacrylamide gel electrophoresis and probed by immunoblotting with EphB1, EphB2, or EphB4 antibodies. The EphB1 antibody (Santa Cruz) was detected with a secondary anti-goat IgG peroxidase-conjugated antibody (BioRad Laboratories). The EphB2 and EphB4 antibodies were affinity-purified polyclonal antibodies to GST fusion proteins containing approximately 100 amino acids from the carboxy-terminal tails of the EphB2 or EphB4 receptors (Noren, N. K. et al. 2004 PNAS USA 101:5583-5588; Holash, J. A. & Pasquale, E. B. 1995 Devel Biol 172:683-693) and were detected with a secondary anti-rabbit IgG peroxidase-conjugated antibody (Amersham Biosciences).
Endogenous EphB receptors were isolated from lysates of mouse brain or cultured cells using the EWLS, SNEW, and TNYL peptides immobilized on streptavidin beads (FIGS. 5B, F, G and H). […] RTVA was used as a control peptide for the EphB4 pull downs. The NPVI peptide could isolate EphB4 from transfected cells but not endogenous EphB4 from MCF7 cells, which is present at lower levels (FIGS. 5B, F, G and H). […] EphB receptors were not detected bound to the beads coated with the other peptides.

Eph receptor Fc proteins = assay: Immobilized biotinylated peptides capturing Eph receptor Fc proteins on streptavidin plates; assay type: binding; details: for Eph receptor binding selectivity of immobilized biotinylated peptide: A- and B-class Eph receptor Fc proteins
Protocol: To measure the specificity of peptide binding to Eph receptors, biotinylated peptides were immobilized on streptavidin-coated plates at 10 μM (Pierce Biotechnology, Rockford, Ill.) and incubated for 1 hr with different Eph ectodomain Fc fusion proteins at 2.5 μg/ml in binding buffer. Bound receptor was detected using an anti-Fc antibody coupled to alkaline phosphatase (Promega) with p-nitrophenylphosphate as substrate (Pierce). The background that was subtracted from the measurements was determined by omitting the Eph ectodomain.
Biotinylated peptides were immobilized on streptavidin-coated plates and used to capture Eph receptor Fc proteins. Bound receptor was detected using anti-Fc antibody coupled to alkaline phosphatase and was normalized to the value in the well with highest receptor binding.

[4] = Solubility in aqueous buffers; assay type: physicochemical
Source text: To determine whether different phage clones target overlapping Eph receptor binding sites, the EWLS EphB1-binding peptide and the TNYL EphB4-binding peptide were chemically synthesized. […] Peptides were synthesized using Fmoc (N-(9-fluorenyl)methoxycarbonyl) chemistry and purified by high pressure liquid chromatography. Biotinylated peptides were synthesized with a carboxy-terminal GSGSK linker with biotin attached to the lysine side chain or with a carboxy-terminal GSGS sequence linked to a carboxy-terminal N-biotinyl-N′-Fmoc-ethylenediamine (Novabiochem). Matrix-assisted laser desorption ionization-time of flight mass spectrometry was used to verify proper peptide synthesis, and purity. Stock solutions of the peptides were dissolved in phosphate buffered saline (PBS, Irvine Scientific) and the pH was verified to be ˜6.5. […] Peptide concentrations were calculated based on (O)280.

[5] = Peptide IC50: concentration of peptide required to inhibit ephrin-B2 AP binding by 50%, biotinylated synthetic peptides except EWYM and FSPQ

Compound: CC[C@H](C)[C@H](NC(=O)[C@@H]1CCCN1C(=O)CNC(=O)[C@H](CC(N)=O)NC(=O)[C@@H]1CCCN1C(=O)[C@H](CO)NC(=O)[C@H](Cc1ccccc1)NC(=O)[C@H](CC(C)C)NC(=O)[C@H](Cc1ccc(O)cc1)NC(=O)[C@H](CC(N)=O)NC(=O)[C@@H](N)[C@@H](C)O)C(=O)N[C@@H](C)C(=O)O [SEQ ID NO 24]
- IC50 (EphB4 [1]; [5]): ~50 µM
- IC50 (EphB4 [1]; non-biotinylated peptide, read-out: IC50 for inhibition of ephrin-B2 AP binding): 150 µM and ~150 µM

Compound: DHNHNLYNPWRL [SEQ ID NO 21]
- IC50 (EphB4 [1]; [5]): ~200 µM

Compound: TNYLFSPNGPIARAW [TNYL-RAW]
- IC50 (EphB4 [1]; non-biotinylated peptide or dimeric ephrin-B2 Fc, read-out: IC50 for inhibition of ephrin-B2 AP binding to EphB4): ~0.015 µM
- Selectivity of antagonism of ephrin-B2 AP binding across EphB ectodomains (EphB receptors): inhibits binding of ephrin-B2 AP to the immobilized EphB4 ectodomain but not other EphB ectodomains
- Inhibition of basal EphB4 tyrosine phosphorylation (EphB4 [2]): inhibited
- Inhibition of ephrin-B2 Fc-induced EphB4 tyrosine phosphorylation (EphB4 [2]; concentration-dependent): inhibited in a concentration-dependent manner EphB4 tyrosine phosphorylation

Compound: NPVIGPIQRAWT [SEQ ID NO 27]
- Pull-down of endogenous EphB4 (EphB4 [3]; MCF7 breast cancer cell line): did not detectably bind
- Pull-down of transfected EphB4 (EphB4 [3]; transfected 293T human embryonic kidney cells): bound the more highly expressed EphB4

Compound: SEQ ID NO 10: 12-mer from EphB2 panning; printed DHWRI[image]PFSLSS (DHWRILPFSLSS)
- Eph receptor binding selectivity of immobilized biotinylated peptide (Eph receptor Fc proteins): less specific

Compound: CC[C@H](C)[C@H](NC(=O)[C@H](C)NC(=O)[C@H](Cc1ccccc1)NC(=O)[C@@H]1CCCN1C(=O)[C@H](CCC(=O)O)NC(=O)[C@@H](NC(=O)[C@@H](NC(=O)[C@H](Cc1c[nH]c2ccccc12)NC(=O)[C@H](Cc1c[nH]cn1)NC(=O)[C@@H](N)Cc1c[nH]c2ccccc12)[C@@H](C)O)[C@@H](C)CC)C(=O)N[C@H](C(=O)N[C@@H](CO)C(=O)O)[C@@H](C)O [SEQ ID NO 8]
- Solubility in aqueous buffers [4]: low solubility

Compound: SEQ ID NO 14: 12-mer from EphB2 panning; printed SHW[image]ISPYSLLS (SHWPISPYSLLS)
- Eph receptor binding selectivity of immobilized biotinylated peptide (Eph receptor Fc proteins): less specific

Compound: SEQ ID NO 34: 12-mer from EphB4 panning; printed IPWTQ[image]MAMSPM (IPWTQHMAMSPM)
- Capture of the EphB ectodomain used for isolation by immobilized biotinylated peptide (Eph receptor Fc proteins; EphB4): failed to bind
